This passage reports IC50 results from patent US10538555B2, “Macrocyclic inhibitors of the PD-1/PD-L1 and CD80(B7-1)/PD-L1 protein/protein interactions” (BRISTOL-MYERS SQUIBB COMPANY, priority 2014, dated 2020).

The assay concerns the target T1, Human PD-L1/PD-1 (Homo sapiens, UniProt Q9NZQ7).
T1 construct: TVMV protease cleavage site (C); made in house; host or cells: HEK293T cells
The experiment in a line: HTRF Human PD-L1/PD-1 binding assay (PD-1-Ig/PD-L1-His). The settings on record: PD-L1-His 10 nM, PD-1-Ig 20 nM. In outline: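 HTRF competition using HEK293T-expressed human PD-1(25-167)-Ig at 20 nM and PD-L1(18-239)-His at 10 nM, compound incubated first with PD-L1 for 15 min, then with PD-1 for 15 min. Signal read as 665/620 nm ratio 30 min after adding Eu anti-Ig and APC anti-His antibodies.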
In general terms: TR-FRET usually uses a lanthanide donor and a delayed reading to cut background.

[1] abbreviates: class symbol, read-out: HTRF Human PD-L1/PD-1 Binding Assay IC50 Range.

Molecules are shown by their SMILES. Where two headings read alike, the source gives them in different places. Where a SMILES comes first, the peptide text is derived from it. Bridges are numbered along the chain shown (N, C = ends). [ ]: non-standard residue; d: D form. Phe(3,4-F2) = N[C@@H](Cc1ccc(F)c(F)c1)C(=O)O; d(cisHyp) = O=C(O)[C@H]1C[C@@H](O)CN1; NMeF = CN[C@@H](Cc1ccccc1)C(=O)O; dNMeF = CN[C@H](Cc1ccccc1)C(=O)O; NMeNle = CCCC[C@H](NC)C(=O)O; Orn = NCCC[C@H](N)C(=O)O; Dab = NCC[C@H](N)C(=O)O

T1 sequence (Q9NZQ7 with tags, fused parts or gaps): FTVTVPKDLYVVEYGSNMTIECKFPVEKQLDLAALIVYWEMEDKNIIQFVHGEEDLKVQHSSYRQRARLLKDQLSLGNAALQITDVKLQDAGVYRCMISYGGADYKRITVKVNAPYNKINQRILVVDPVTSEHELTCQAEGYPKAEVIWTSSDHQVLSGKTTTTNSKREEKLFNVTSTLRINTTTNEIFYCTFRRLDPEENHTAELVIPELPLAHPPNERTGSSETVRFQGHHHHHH

For `CCCC[C@H]1C(=O)N2C[C@H](O)C[C@@H]2C(=O)N[C@@H](CC(=O)O)C(=O)N[C@@H](C(C)C)C(=O)N(C)[C@@H](Cc2ccccc2)C(=O)N[C@@H](CC(=O)O)C(=O)N2C[C@H](O)C[C@@H]2C(=O)N[C@@H](Cc2c[nH]c3ccccc23)C(=O)N[C@@H](Cc2ccc(O)cc2)C(=O)N[C@@H](CC(C)C)C(=O)N[C@H](C(=O)NCC(N)=O)CSCC(=O)N[C@@H](Cc2ccc(F)c(F)c2)C(=O)N(C)[C@@H](Cc2ccccc2)C(=O)N1C` [Example 9289] ({CH2CO}-[Phe(3,4-F2)][NMeF][NMeNle][d(cisHyp)]DV[NMeF]D[d(cisHyp)]WYLCG-NH2; thioether N-13), the IC50 under setting [1] lay within 1 to 9.9 nM.
Still for that read-out and setting: the same measure for `CCCC[C@H]1C(=O)N2C[C@H](O)C[C@@H]2C(=O)N[C@@H](CC(=O)O)C(=O)N[C@@H](C(C)C)C(=O)N(C)[C@@H](Cc2ccccc2)C(=O)N[C@@H](CC(N)=O)C(=O)N2C[C@H](O)C[C@@H]2C(=O)N[C@@H](Cc2c[nH]c3ccccc23)C(=O)N[C@@H](Cc2ccc(O)cc2)C(=O)N[C@@H](CC(C)C)C(=O)N[C@H](C(=O)NCC(N)=O)CSCC(=O)N[C@@H](Cc2ccc(F)c(F)c2)C(=O)N(C)[C@@H](Cc2ccccc2)C(=O)N1C` [Example 9292]: 1 to 9.9 nM.
Same read-out and setting: the same measure for `CCCC[C@H]1C(=O)N2C[C@H](O)C[C@@H]2C(=O)N[C@@H](CC(=O)O)C(=O)N[C@@H](C(C)C)C(=O)N(C)[C@@H](Cc2ccccc2)C(=O)N[C@@H](CCCCN)C(=O)N2C[C@H](O)C[C@@H]2C(=O)N[C@@H](Cc2c[nH]c3ccccc23)C(=O)N[C@@H](Cc2ccc(O)cc2)C(=O)N[C@@H](CC(C)C)C(=O)N[C@H](C(=O)NCC(N)=O)CSCC(=O)N[C@@H](Cc2ccc(F)c(F)c2)C(=O)N(C)[C@@H](Cc2ccccc2)C(=O)N1C` [Example 9294] ({CH2CO}-[Phe(3,4-F2)][NMeF][NMeNle][d(cisHyp)]DV[NMeF]K[d(cisHyp)]WYLCG-NH2; thioether N-13): 1 to 9.9 nM; for `CCCC[C@H]1C(=O)N2C[C@H](O)C[C@@H]2C(=O)N[C@@H](CC(=O)O)C(=O)N[C@@H](C(C)C)C(=O)N(C)[C@H](Cc2ccccc2)C(=O)N[C@@H](CCCCN)C(=O)N2C[C@H](O)C[C@@H]2C(=O)N[C@@H](Cc2c[nH]c3ccccc23)C(=O)N[C@@H](Cc2ccc(O)cc2)C(=O)N[C@@H](CC(C)C)C(=O)N[C@H](C(=O)NCC(N)=O)CSCC(=O)N[C@@H](Cc2ccc(F)c(F)c2)C(=O)N(C)[C@@H](Cc2ccccc2)C(=O)N1C` [Example 9295] ({CH2CO}-[Phe(3,4-F2)][NMeF][NMeNle][d(cisHyp)]DV[dNMeF]K[d(cisHyp)]WYLCG-NH2; thioether N-13): 1 to 9.9 nM; for `CCCC[C@H]1C(=O)N2C[C@H](O)C[C@@H]2C(=O)N[C@@H](CC(=O)O)C(=O)N[C@@H](C(C)C)C(=O)N(C)[C@@H](Cc2ccccc2)C(=O)N[C@@H](CCCN)C(=O)N2C[C@H](O)C[C@@H]2C(=O)N[C@@H](Cc2c[nH]c3ccccc23)C(=O)N[C@@H](Cc2ccc(O)cc2)C(=O)N[C@@H](CC(C)C)C(=O)N[C@H](C(=O)NCC(N)=O)CSCC(=O)N[C@@H](Cc2ccc(F)c(F)c2)C(=O)N(C)[C@@H](Cc2ccccc2)C(=O)N1C` [Example 9296] ({CH2CO}-[Phe(3,4-F2)][NMeF][NMeNle][d(cisHyp)]DV[NMeF][Orn][d(cisHyp)]WYLCG-NH2; thioether N-13): 1 to 9.9 nM.
Still for that read-out and setting: the same measure for `CCCC[C@H]1C(=O)N2C[C@H](O)C[C@@H]2C(=O)N[C@@H](CC(=O)O)C(=O)N[C@@H](C(C)C)C(=O)N(C)[C@H](Cc2ccccc2)C(=O)N[C@@H](CCCN)C(=O)N2C[C@H](O)C[C@@H]2C(=O)N[C@@H](Cc2c[nH]c3ccccc23)C(=O)N[C@@H](Cc2ccc(O)cc2)C(=O)N[C@@H](CC(C)C)C(=O)N[C@H](C(=O)NCC(N)=O)CSCC(=O)N[C@@H](Cc2ccc(F)c(F)c2)C(=O)N(C)[C@@H](Cc2ccccc2)C(=O)N1C` [Example 9297] ({CH2CO}-[Phe(3,4-F2)][NMeF][NMeNle][d(cisHyp)]DV[dNMeF][Orn][d(cisHyp)]WYLCG-NH2; thioether N-13): 1 to 9.9 nM.
For the compound `CCCC[C@H]1C(=O)N2C[C@H](O)C[C@@H]2C(=O)N[C@@H](CC(=O)O)C(=O)N[C@@H](C(C)C)C(=O)N(C)[C@@H](Cc2ccccc2)C(=O)N[C@@H](CCN)C(=O)N2C[C@H](O)C[C@@H]2C(=O)N[C@@H](Cc2c[nH]c3ccccc23)C(=O)N[C@@H](Cc2ccc(O)cc2)C(=O)N[C@@H](CC(C)C)C(=O)N[C@H](C(=O)NCC(N)=O)CSCC(=O)N[C@@H](Cc2ccc(F)c(F)c2)C(=O)N(C)[C@@H](Cc2ccccc2)C(=O)N1C` [Example 9298] ({CH2CO}-[Phe(3,4-F2)][NMeF][NMeNle][d(cisHyp)]DV[NMeF][Dab][d(cisHyp)]WYLCG-NH2; thioether N-13), under setting [1], the IC50 lay within 1 to 9.9 nM.
The same measure, in the same setting: the same measure for `CCCC[C@H]1C(=O)N2C[C@H](O)C[C@@H]2C(=O)N[C@@H](CC(=O)O)C(=O)N[C@@H](C(C)C)C(=O)N(C)[C@H](Cc2ccccc2)C(=O)N[C@@H](CCN)C(=O)N2C[C@H](O)C[C@@H]2C(=O)N[C@@H](Cc2c[nH]c3ccccc23)C(=O)N[C@@H](Cc2ccc(O)cc2)C(=O)N[C@@H](CC(C)C)C(=O)N[C@H](C(=O)NCC(N)=O)CSCC(=O)N[C@@H](Cc2ccc(F)c(F)c2)C(=O)N(C)[C@@H](Cc2ccccc2)C(=O)N1C` [Example 9299] ({CH2CO}-[Phe(3,4-F2)][NMeF][NMeNle][d(cisHyp)]DV[dNMeF][Dab][d(cisHyp)]WYLCG-NH2; thioether N-13): 1 to 9.9 nM; for `CCCC[C@H]1C(=O)N2C[C@H](O)C[C@@H]2C(=O)N[C@@H](CC(=O)O)C(=O)N[C@@H](C(C)C)C(=O)N(C)[C@@H](Cc2ccccc2)C(=O)N[C@@H](CC(=O)O)C(=O)N2C[C@H](O)C[C@@H]2C(=O)N[C@@H](Cc2c[nH]c3ccccc23)C(=O)N[C@@H](Cc2ccc(O)cc2)C(=O)N[C@@H](CCCN)C(=O)N[C@H](C(=O)NCC(N)=O)CSCC(=O)N[C@@H](Cc2ccc(F)c(F)c2)C(=O)N(C)[C@@H](Cc2ccccc2)C(=O)N1C` [Example 9300] ({CH2CO}-[Phe(3,4-F2)][NMeF][NMeNle][d(cisHyp)]DV[NMeF]D[d(cisHyp)]WY[Orn]CG-NH2; thioether N-13): 1 to 9.9 nM; for `CCCC[C@H]1C(=O)N2C[C@H](O)C[C@@H]2C(=O)N[C@@H](CC(=O)O)C(=O)N[C@@H](C(C)C)C(=O)N(C)[C@H](Cc2ccccc2)C(=O)N[C@@H](CC(=O)O)C(=O)N2C[C@H](O)C[C@@H]2C(=O)N[C@@H](Cc2c[nH]c3ccccc23)C(=O)N[C@@H](Cc2ccc(O)cc2)C(=O)N[C@@H](CCCN)C(=O)N[C@H](C(=O)NCC(N)=O)CSCC(=O)N[C@@H](Cc2ccc(F)c(F)c2)C(=O)N(C)[C@@H](Cc2ccccc2)C(=O)N1C` [Example 9301] ({CH2CO}-[Phe(3,4-F2)][NMeF][NMeNle][d(cisHyp)]DV[dNMeF]D[d(cisHyp)]WY[Orn]CG-NH2; thioether N-13): 1 to 9.9 nM.
For the compound `CCCC[C@H]1C(=O)N2C[C@H](O)C[C@@H]2C(=O)N[C@@H](CC(=O)O)C(=O)N[C@@H](C(C)C)C(=O)N(C)[C@@H](Cc2ccccc2)C(=O)N[C@@H](CCC(N)=O)C(=O)N2C[C@H](O)C[C@@H]2C(=O)N[C@@H](Cc2c[nH]c3ccccc23)C(=O)N[C@@H](Cc2ccc(O)cc2)C(=O)N[C@@H](CCCN)C(=O)N[C@H](C(=O)NCC(N)=O)CSCC(=O)N[C@@H](Cc2ccc(F)c(F)c2)C(=O)N(C)[C@@H](Cc2ccccc2)C(=O)N1C` [Example 9302] ({CH2CO}-[Phe(3,4-F2)][NMeF][NMeNle][d(cisHyp)]DV[NMeF]Q[d(cisHyp)]WY[Orn]CG-NH2; thioether N-13), the IC50 under setting [1] fell in the range of 1 to 9.9 nM.
Same read-out and setting: for `CCCC[C@H]1C(=O)N2C[C@H](O)C[C@@H]2C(=O)N[C@@H](CC(=O)O)C(=O)N[C@@H](C(C)C)C(=O)N(C)[C@H](Cc2ccccc2)C(=O)N[C@@H](CCC(N)=O)C(=O)N2C[C@H](O)C[C@@H]2C(=O)N[C@@H](Cc2c[nH]c3ccccc23)C(=O)N[C@@H](Cc2ccc(O)cc2)C(=O)N[C@@H](CCCN)C(=O)N[C@H](C(=O)NCC(N)=O)CSCC(=O)N[C@@H](Cc2ccc(F)c(F)c2)C(=O)N(C)[C@@H](Cc2ccccc2)C(=O)N1C` [Example 9303] ({CH2CO}-[Phe(3,4-F2)][NMeF][NMeNle][d(cisHyp)]DV[dNMeF]Q[d(cisHyp)]WY[Orn]CG-NH2; thioether N-13) the value was 1 to 9.9 nM.
Regarding `CCCC[C@H]1C(=O)N2C[C@H](O)C[C@@H]2C(=O)N[C@@H](CC(=O)O)C(=O)N[C@@H](C(C)C)C(=O)N(C)[C@@H](Cc2ccccc2)C(=O)N[C@@H](CC(N)=O)C(=O)N2C[C@H](O)C[C@@H]2C(=O)N[C@@H](Cc2c[nH]c3ccccc23)C(=O)N[C@@H](Cc2ccc(O)cc2)C(=O)N[C@@H](CCCN)C(=O)N[C@H](C(=O)NCC(N)=O)CSCC(=O)N[C@@H](Cc2ccc(F)c(F)c2)C(=O)N(C)[C@@H](Cc2ccccc2)C(=O)N1C` [Example 9304], the IC50 (read-out: HTRF Human PD-L1/PD-1 Binding Assay IC50) was 11.7 nM.
With `CCCC[C@H]1C(=O)N2C[C@H](O)C[C@@H]2C(=O)N[C@@H](CC(=O)O)C(=O)N[C@@H](C(C)C)C(=O)N(C)[C@@H](Cc2ccccc2)C(=O)N[C@@H](CCCCN)C(=O)N2C[C@H](O)C[C@@H]2C(=O)N[C@@H](Cc2c[nH]c3ccccc23)C(=O)N[C@@H](Cc2ccc(O)cc2)C(=O)N[C@@H](CCCN)C(=O)N[C@H](C(=O)NCC(N)=O)CSCC(=O)N[C@@H](Cc2ccc(F)c(F)c2)C(=O)N(C)[C@@H](Cc2ccccc2)C(=O)N1C` [Example 9306] ({CH2CO}-[Phe(3,4-F2)][NMeF][NMeNle][d(cisHyp)]DV[NMeF]K[d(cisHyp)]WY[Orn]CG-NH2; thioether N-13), under setting [1], the IC50 lay within 1 to 9.9 nM.
